Experimental data reported in article PMC4757070, “Involvement of a Novel Class C Beta-Lactamase in the Transglutaminase Mediated Cross-Linking Cascade of Streptomyces mobaraensis DSM 40847” (PLoS ONE, 2016).
Like-named read-outs stand apart in the source and are kept apart here.

Tests used:
[1] = target: T1, beta-lactamase Sml-1 (rSml-1); experiment: inhibition of nitrocefin hydrolysis at […] nm; Ki from IC50 ([…]) by Cheng-Prusoff; assay type: biochemical
T1 construct: recombinant Sml-1 produced in E. coli BL21(DE3) RIL with pelB leader and C-terminal Gly-Leu-Glu-(His)6

[2] = target: T1, beta-lactamase Sml-1 (rSml-1); experiment: as above; assay type: biochemical, Streptomyces mobaraensis

## CC1(C)S[C@@H]2[C@H](NC(=O)[C@H](N)c3ccccc3)C(=O)N2[C@H]1C(=O)O [ampicillin]
[1]
  Ki: 180 µM

## CC1(C)S[C@@H]2[C@H](NC(=O)Cc3ccccc3)C(=O)N2[C@H]1C(=O)O [penicillin G]
[2]
  Ki: 100 µM
